# Measurements as given in patent US9248203B2, “Fluorescent imaging with substituted cyanine dyes” (LI-COR, INC., priority 2010, dated 2016).
# Tests used:
# [1] = Summary of photophysical properties (absorption, emission, relative fluorescence, quantum yield); type: physicochemical; details: head is a formula, relative to IRDye 800 CW
# [2] = value used for the standard IRDye 800 CW; cited from earlier work
# U87GM cells = assay: Immunocytochemical binding, blocking and dye control assay, U87GM; type: cell-based; details: dye control up to 5 μM, FIG. 7C
# Method: RGD (Arg-Gly-Asp), the recognition motif used to bind the integrin receptors, was labeled with compound 17. The characteristics of RGD/17 conjugate and the analogous dye carboxylate 16 were evaluated in a cell-based assay.
# Compound 17 was conjugated to the peptide RGD by the general procedure set forth in Example 32.
# The cell lines U87GM and PC3MLN4 were assayed. Assays included binding, blocking, and carboxylate control. Serial dilutions of compound 16 were prepared at concentrations of 200-6.25 nM. Blocking was accomplished with unlabeled RGD at concentrations of 10-0.31 μM with the addition of 200 nM compound 17-RGD conjugates in all test wells. The compound 16 was evaluated as a dye control for non-specific binding at relatively high levels from 5-0.16 μM with U87GM cells and 1-0.002 μM with PC3 cells.
# In the second round of testing with U87GM cells, concentrations of unlabeled RGD and compound 17/RGD were increased (FIGS. 8A and 8B). Binding assay concentrations utilized 0.8-400 nM while the blocking assay used 0.06-30 μM unlabeled RGD with an addition of 200 nM 17/RGD.
# [3] = In vivo clearance, Pearl Impulse imaging; parameters: species or system nude mice; details: for Total: 800 channel; for clearance in vivo (clearance series): FIG. 9, 1 nmole injected, imaged over 24 h
# Method: Two nude mice were injected with 1 nmole of either compound 16 or IRDye 800CW carboxylate. They were then imaged longitudinally over the next 24 h with the Pearl Impulse imaging system. The results are presented in FIG. 9: in vivo clearance in nudes (FIG. 9A), whole body dorsal views (FIG. 9B), and the rate of clearance (FIG. 9C). The clearance data is presented below in Table 4.
# [4] = Absorption wavelength of the cyanine dyes in methanol (halo substitution effect); type: physicochemical; details: Table 2
# Description: Design Principle: We analyzed the properties of a dye scaffold and related compounds and the corresponding substitution effects on the excitation and emission wavelengths. The small size of fluorine is unlikely to produce steric effects, therefore, we explored the electronic effects of fluorine and related substitutions. The Hammett equation (σ-value) is an important tool to understand the electronic effects of the substituents, therefore, we explored the correlation of the wavelength (λMeOH) and the σ-value (vide infra): […]
compound,measurement,setting,value
"CC1(C)C(=CC=C2CCCC(C=CC3=[N+](CCCCCC(=O)[O-])c4ccc(S(=O)(=O)[O-])cc4C3(C)C)=C2Oc2ccc(S(=O)(=O)[O-])cc2)N(CCCCS(=O)(=O)[O-])c2ccc(S(=O)(=O)[O-])cc21.[Na+].[Na+].[Na+].[Na+] [IRDye 800CW, reference compound]",[formula] Odyssey,[1],100%
same,[formula] Fluorimeter,[1],100%
same,Quantum Yield of the standard,[2],0.07
CC1(C)C(/C=C/C2=C(c3c(F)cc(F)cc3F)C(=C/C=C3/N(CCCS(=O)(=O)[O-])c4ccc(S(=O)(=O)[O-])cc4C3(C)C)/CC(C(=O)O)C2)=[N+](CCCS(=O)(=O)[O-])c2ccc(S(=O)(=O)[O-])cc21.[Na+].[Na+].[Na+] (stereo not drawn) [Compound 16],concentration above which relatively high non-specific binding of the dye alone was noted,U87GM cells,above 2 μM
same,Total,[3]; 1 min,109682.80
same,Total,[3]; 17 min,282046.59
same,Total,[3]; 45 min,286573.94
same,Total,[3]; 71 min,266647.59
same,Total,[3]; 190 min,139736.97
same,Total,[3]; 276 min,76493.30
same,Total,[3]; 1435 min,1652.69
same,clearance in vivo (clearance series),[3],good clearance in vivo
IRDye 800CW carboxylate [reference compound],Total,[3]; 3 min,114295.49
same,Total,[3]; 19 min,306555.97
same,Total,[3]; 47 min,291381.69
same,Total,[3]; 74 min,272408.13
same,Total,[3]; 192 min,154950.09
same,Total,[3]; 278 min,102698.54
same,Total,[3]; 1439 min,2336.87
same,clearance in vivo (clearance series),[3],good clearance in vivo
CC1(C)C(/C=C/C2=C(c3cccc(F)c3F)C(=C/C=C3/N(CCCCS(=O)(=O)[O-])c4ccc(S(=O)(=O)[O-])cc4C3(C)C)/CC(C(=O)O)C2)=[N+](CCCCS(=O)(=O)[O-])c2ccc(S(=O)(=O)[O-])cc21.[Na+].[Na+].[Na+] (stereo not drawn) [Compound 63a],λMeOH,[4],770 nm
CCCCOc1c(F)c(F)c(C2=C(/C=C/C3=[N+](CCCCS(=O)(=O)[O-])c4ccc(S(=O)(=O)[O-])cc4C3(C)C)CCC/C2=C\C=C2\N(CCCCS(=O)(=O)[O-])c3ccc(S(=O)(=O)[O-])cc3C2(C)C)c(F)c1F.[Na+].[Na+].[Na+] [Compound 24],λMeOH,[4],790 nm
CC1(C)C(/C=C/C2=C(c3cccc(F)c3F)C(=C/C=C3/N(CCCCS(=O)(=O)[O-])c4ccc(S(=O)(=O)[O-])cc4C3(C)C)/CCC2)=[N+](CCCCS(=O)(=O)[O-])c2ccc(S(=O)(=O)[O-])cc21.[Na+].[Na+].[Na+] [Compound 62k],[formula] Odyssey,[1],104%
same,[formula] Fluorimeter,[1],100%
